This data set can be described thus: IV clearance, 1 mg/kg IV, rat. The class given is in vivo. The following applies: for in vivo/in vitro correction factor: microsomal CLh divided by IV CL; for clearance: plasma, 1 mg/kg IV. As to the method:
In Table 1, the predicted human IV clearance values were calculated from compound concentration-versus-time data in plasma collected from pre-clinical species (mouse, rat, dog and monkey) following 1 mg/kg intravenous (IV) doses. Concentrations of compound in plasma were measured by LC-MS (liquid chromatography-mass spectrometry). AUCinf values (Area under the plasma concentration-time curve for a dosing interval from time 0 extrapolated to infinity) for individual Cp/t curves (concentration of the drug in plasma at any time t) were determined using linear-trapezoidal integration and first order extrapolation from terminal points of the Cp/t curves, and clearance (CL) was calculated using Dose/AUCinf.
Each of Compound 1, Compound 2, and Compound 3 was formulated by adding the compound (dry) to 20% Trappsol® (hydroxypropyl Beta cyclodextrin; CDT, Inc.) (aq) pH 5.0 and vortexing until a homogeneous suspension (PO) or solution (IV) was achieved.
For intravenous dosing, animals were anesthetized with 3% isoflurane, balanced O2. 1 mg/kg of Compound 1, Compound 2, and Compound 3 was administered at a dose volume of 1 mL/kg to the lateral tail vein. Blood was drawn from the opposite lateral tail vein while the animal was under anesthesia (3% isoflurane balanced with O2, 0.2 mL/timepoint) into NaEDTA tubes (1.5% v/v) at the following time points: 1, 5, 15, 30 minutes, and 1, 2, 4, 8 and 24 hours, and mixed thoroughly.
A single 12-point calibration curve was prepared by first serially diluting (3-fold) a 40-μg/mL stock solution of Compound 1, Compound 2, and Compound 3 in DMSO to provide standard solutions. Plasma (20 μL) was then added to the extraction plate, and 2.5 μL of each standard solution was added to the naïve plasma. A stock solution of an internal standard (10.0 μL of 2.5 μg/mL in acetonitrile) subsequently was added to each standard and sample solution. Proteinaceous material was precipitated from 20 μL of plasma with the addition of 317.5 μL of acetonitrile for a total volume of 350 μL. Samples were vortex-mixed for 5 minutes and spun in an Allegra X-12R centrifuge (Beckman Coulter, Fullerton, Calif.) for 15 minutes at approximately 1,500×g at 4° C. A 100-μL aliquot of each supernatant was transferred via a 550 μL Personal Pipettor (Apricot Designs, Monrovia, Calif.) to 96-well plates and diluted 1:1 with HPLC grade water. The resulting plates were sealed with plate mats and the amount of Compound 1n the plasma was analyzed by LC-MS/MS.
The LC-MS/MS system was comprised of an HTC-PAL autosampler (Leap Technologies, Inc., Carrboro, N.C.), an HP1100 HPLC (Agilent Technologies Inc., Santa Clara, Calif.), and an API4000 triple quadrupole mass spectrometer (Applied Biosystems, Foster City, Calif.). Chromatographic retention of the analyte and internal standard was achieved using a Phenomenex® Synergi 4μ Hydro-RP 80A column (2.1×30 mm, 4 μm particle size; Phenomenex, Torrance, Calif.) in conjunction with gradient conditions using mobile phases A (10 mM ammonium acetate in aqueous 0.1% formic acid and 1% isopropyl alcohol) and B (10 mM ammonium acetate in 89.9% acetonitrile, 10% methanol, 0.1% formic acid). The total run time, including re-equilibration time, for a single injection was 3.5 minutes and the flow rate was 0.8 mL/minute. Solvent B was increased from 5 to 95% in 1.0 minute, held at 95% for 1.0 minute, and then decreased to 5% in 0.1 minute.
The total run time, including re-equilibration time, for a single injection was 3.5 minutes and the flow rate was 0.8 mL/min. Solvent B was increased from 5 to 95% in 1.0 minutes, held at 95% for 1.0 minute, and then decreased to 5% in 0.1 minute. Mass spectrometric detection of the analytes was accomplished using ESI+ ionization mode. Ion current was optimized during infusion of a stock solution of Compound 1, Compound 2, and Compound 3. Analyte responses were measured by multiple reaction monitoring (MRM) of transitions unique to each compound. […]

In the case of `COCCN1C[C@@H](NC(=O)Nc2c(C)c(-c3cnc(C)nc3)nn2-c2ccccc2)[C@H](c2ccc(F)c(F)c2)C1` [Compound 2, 1-((3S,4R)-4-(3,4-difluorophenyl)-1-(2-methoxyethyl)pyrrolidin-3-yl)-3-(4-methyl-3-(2-methylpyrimidin-5-yl)-1-phenyl-1H-pyrazol-5-yl)urea], the “in vivo/in vitro correction factor” value is 0.76 and the clearance stood at 29 mL/min/kg.
For `COCCN1C[C@@H](NC(=O)Nc2c(C)c(-c3cnn(C)c3)nn2-c2ccccc2)[C@H](c2ccc(F)cc2)C1` [Compound 3, 1-(1′,4-dimethyl-1-phenyl-1H,1′H-[3,4′-bipyrazol]-5-yl)-3-((3S,4R)-4-(4-fluorophenyl)-1-(2-methoxyethyl)pyrrolidin-3-yl)urea], in that order: 0.88 and 26 mL/min/kg.
For `COCCN1C[C@@H](NC(=O)Nc2c(C)c(-c3cnc(C)nc3)nn2-c2ccccc2)[C@H](c2cccc(F)c2)C1` [Compound 1, 1-((3S,4R)-4-(3-fluorophenyl)-1-(2-methoxyethyl)pyrrolidin-3-yl)-3-(4-methyl-3-(2-methylpyrimidin-5-yl)-1-phenyl-1H-pyrazol-5-yl)urea], in that order: 1.47 and 15 mL/min/kg.

Values taken from patent US10835533B2, “1 -((3S,4R)-4-(3-fluorophenyl)-1-(2-methoxyethyl)pyrrolidin-3-yl)-3-(4-methyl-3-(2-methylpyrimidin-5-yl)-1-phenyl-1H-pyrazol-5-yl)urea as a TrkA kinase inhibitor” (Array BioPharma Inc., priority 2014, dated 2020).
